Experiments:
[1] = target: Phosphatidylinositol 3-kinase catalytic subunit type 3 (Homo sapiens) (UniProt Q8NEB9); conditions: Compound concentration 1000.0 nM
[2] = target: Tyrosine-protein kinase Fgr (Homo sapiens) (UniProt P09769); conditions: Compound concentration 1000.0 nM
[3] = tested on: Serine/threonine-protein kinase B-raf (Homo sapiens), P15056 [V600E]; conditions: Compound concentration 1000.0 nM
[4] = target: Protein-tyrosine kinase 6 (Homo sapiens) (UniProt Q13882); conditions: Compound concentration 1000.0 nM
[5] = target: Mitogen-activated protein kinase kinase kinase 1 (Homo sapiens) (UniProt Q13233); conditions: Compound concentration 1000.0 nM
[6] = target: Casein kinase I isoform epsilon (Homo sapiens) (UniProt P49674); conditions: Compound concentration 1000.0 nM
[7] = target: Megakaryocyte-associated tyrosine-protein kinase (Homo sapiens) (UniProt P42679); conditions: Compound concentration 1000.0 nM
[8] = target: Mitogen-activated protein kinase kinase kinase 10 (Homo sapiens) (UniProt Q02779); conditions: Compound concentration 1000.0 nM
[9] = target: Receptor-type tyrosine-protein kinase FLT3 (Homo sapiens) (UniProt P36888); conditions: Compound concentration 1000.0 nM
[10] = target: Mitogen-activated protein kinase 7 (Homo sapiens) (UniProt Q13164); conditions: Compound concentration 1000.0 nM
[11] = target: Tyrosine-protein kinase Mer (Homo sapiens) (UniProt Q12866); conditions: Compound concentration 1000.0 nM
[12] = target: Serine/threonine-protein kinase LATS1 (Homo sapiens) (UniProt O95835); conditions: Compound concentration 1000.0 nM
[13] = target: 5-hydroxytryptamine receptor 2C (Homo sapiens) (UniProt P28335); conditions: Compound concentration 10.0 uM
[14] = target: Tyrosine-protein kinase TXK (Homo sapiens) (UniProt P42681); conditions: Compound concentration 1000.0 nM
[15] = target: Serine/threonine-protein kinase pim-2 (Homo sapiens) (UniProt Q9P1W9); conditions: Compound concentration 1000.0 nM
[16] = target: Ephrin type-B receptor 2 (Homo sapiens) (UniProt P29323); conditions: Compound concentration 1000.0 nM
[17] = target: Activin receptor type-1-like (Homo sapiens) (UniProt P37023); conditions: Compound concentration 1000.0 nM
[18] = target: Cyclin-dependent kinase-like 2 (Homo sapiens) (UniProt Q92772); conditions: Compound concentration 1000.0 nM
[19] = target: Vascular endothelial growth factor receptor 2 (Homo sapiens) (UniProt P35968); conditions: Compound concentration 1000.0 nM
[20] = tested on: Hepatocyte growth factor receptor (Homo sapiens), P08581 [M1250T]; conditions: Compound concentration 1000.0 nM
[21] = target: Epithelial discoidin domain-containing receptor 1 (Homo sapiens) (UniProt Q08345); conditions: Compound concentration 1000.0 nM
[22] = target: Vascular endothelial growth factor receptor 3 (Homo sapiens) (UniProt P35916); conditions: Compound concentration 1000.0 nM
[23] = target: Activin receptor type-1 (Homo sapiens) (UniProt Q04771); conditions: Compound concentration 1000.0 nM
[24] = target: Tyrosine-protein kinase Fer (Homo sapiens) (UniProt P16591); conditions: Compound concentration 1000.0 nM
[25] = target: Ephrin type-A receptor 6 (Homo sapiens) (UniProt Q9UF33); conditions: Compound concentration 1000.0 nM
[26] = target: Serine/threonine-protein kinase Nek2 (Homo sapiens) (UniProt P51955); conditions: Compound concentration 1000.0 nM
[27] = target: Cyclin-dependent kinase 8 (Homo sapiens) (UniProt P49336); conditions: Compound concentration 1000.0 nM
[28] = target: Proto-oncogene tyrosine-protein kinase ROS (Homo sapiens) (UniProt P08922); conditions: Compound concentration 1000.0 nM
[29] = target: Phosphorylase b kinase regulatory subunit alpha, liver isoform (Homo sapiens) (UniProt P46019); conditions: Compound concentration 1000.0 nM
[30] = target: RAC-beta serine/threonine-protein kinase (Homo sapiens) (UniProt P31751); conditions: Compound concentration 1000.0 nM
[31] = target: Hormonally up-regulated neu tumor-associated kinase (Homo sapiens) (UniProt P57058); conditions: Compound concentration 1000.0 nM
[32] = target: Serine/threonine-protein kinase Sgk1 (Homo sapiens) (UniProt O00141); conditions: Compound concentration 1000.0 nM
[33] = target: Bone morphogenetic protein receptor type-1A (Homo sapiens) (UniProt P36894); conditions: Compound concentration 1000.0 nM
[34] = target: Serine/threonine-protein kinase 3 (Homo sapiens) (UniProt Q13188); conditions: Compound concentration 1000.0 nM
[35] = tested on: Epidermal growth factor receptor (Homo sapiens), P00533 [T790M]; conditions: Compound concentration 1000.0 nM
[36] = target: Serine/threonine-protein kinase/endoribonuclease IRE1 (Homo sapiens) (UniProt O75460); conditions: Compound concentration 1000.0 nM
[37] = target: 5-hydroxytryptamine receptor 6 (Homo sapiens) (UniProt P50406); conditions: Compound concentration 10.0 uM
[38] = target: Alpha-2C adrenergic receptor (Homo sapiens) (UniProt P18825); conditions: Compound concentration 10.0 uM
[39] = target: Protein kinase C theta type (Homo sapiens) (UniProt Q04759); conditions: Compound concentration 1000.0 nM
[40] = target: Serine/threonine-protein kinase D1 (Homo sapiens) (UniProt Q15139); conditions: Compound concentration 1000.0 nM
[41] = target: Serine/threonine-protein kinase PLK4 (Homo sapiens) (UniProt O00444); conditions: Compound concentration 1000.0 nM
[42] = target: Serine/threonine-protein kinase TBK1 (Homo sapiens) (UniProt Q9UHD2); conditions: Compound concentration 1000.0 nM
[43] = target: Death-associated protein kinase 1 (Homo sapiens) (UniProt P53355); conditions: Compound concentration 1000.0 nM
[44] = target: Serine/threonine-protein kinase SBK1 (Homo sapiens) (UniProt Q52WX2); conditions: Compound concentration 1000.0 nM
[45] = tested on: Tyrosine-protein kinase ABL1 (Homo sapiens), P00519 [H396P]; conditions: Compound concentration 1000.0 nM
[46] = target: Inhibitor of nuclear factor kappa-B kinase subunit alpha (Homo sapiens) (UniProt O15111); conditions: Compound concentration 1000.0 nM

Sequence of Tyrosine-protein kinase Mer (Homo sapiens) (Q12866 whole entry): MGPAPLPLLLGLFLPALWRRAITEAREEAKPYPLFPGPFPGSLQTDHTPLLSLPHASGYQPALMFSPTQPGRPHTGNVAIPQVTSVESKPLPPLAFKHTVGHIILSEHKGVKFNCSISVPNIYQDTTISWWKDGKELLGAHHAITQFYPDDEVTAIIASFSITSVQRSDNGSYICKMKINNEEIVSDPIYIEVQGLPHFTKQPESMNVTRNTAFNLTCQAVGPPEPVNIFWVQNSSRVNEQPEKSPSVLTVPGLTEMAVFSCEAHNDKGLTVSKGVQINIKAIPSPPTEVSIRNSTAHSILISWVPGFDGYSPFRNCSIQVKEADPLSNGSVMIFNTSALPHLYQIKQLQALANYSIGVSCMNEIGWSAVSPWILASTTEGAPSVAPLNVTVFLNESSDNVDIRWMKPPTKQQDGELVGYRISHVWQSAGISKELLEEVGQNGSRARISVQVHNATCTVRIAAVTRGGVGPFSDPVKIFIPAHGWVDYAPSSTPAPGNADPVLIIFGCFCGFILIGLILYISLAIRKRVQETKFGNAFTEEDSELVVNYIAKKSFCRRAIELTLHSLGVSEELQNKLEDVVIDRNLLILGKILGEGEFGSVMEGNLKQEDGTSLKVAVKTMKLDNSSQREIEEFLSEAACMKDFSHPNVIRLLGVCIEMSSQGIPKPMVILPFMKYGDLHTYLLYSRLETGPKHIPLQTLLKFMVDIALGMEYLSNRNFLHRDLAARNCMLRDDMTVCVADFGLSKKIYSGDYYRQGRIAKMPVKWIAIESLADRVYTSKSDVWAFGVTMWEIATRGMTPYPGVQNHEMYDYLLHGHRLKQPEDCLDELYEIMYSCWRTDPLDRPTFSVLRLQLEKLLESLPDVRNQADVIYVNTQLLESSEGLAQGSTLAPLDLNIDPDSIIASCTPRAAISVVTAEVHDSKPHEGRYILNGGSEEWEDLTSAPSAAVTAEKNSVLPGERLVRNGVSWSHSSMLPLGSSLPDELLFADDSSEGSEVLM
Sequence of Receptor-type tyrosine-protein kinase FLT3 (Homo sapiens) (P36888 whole entry): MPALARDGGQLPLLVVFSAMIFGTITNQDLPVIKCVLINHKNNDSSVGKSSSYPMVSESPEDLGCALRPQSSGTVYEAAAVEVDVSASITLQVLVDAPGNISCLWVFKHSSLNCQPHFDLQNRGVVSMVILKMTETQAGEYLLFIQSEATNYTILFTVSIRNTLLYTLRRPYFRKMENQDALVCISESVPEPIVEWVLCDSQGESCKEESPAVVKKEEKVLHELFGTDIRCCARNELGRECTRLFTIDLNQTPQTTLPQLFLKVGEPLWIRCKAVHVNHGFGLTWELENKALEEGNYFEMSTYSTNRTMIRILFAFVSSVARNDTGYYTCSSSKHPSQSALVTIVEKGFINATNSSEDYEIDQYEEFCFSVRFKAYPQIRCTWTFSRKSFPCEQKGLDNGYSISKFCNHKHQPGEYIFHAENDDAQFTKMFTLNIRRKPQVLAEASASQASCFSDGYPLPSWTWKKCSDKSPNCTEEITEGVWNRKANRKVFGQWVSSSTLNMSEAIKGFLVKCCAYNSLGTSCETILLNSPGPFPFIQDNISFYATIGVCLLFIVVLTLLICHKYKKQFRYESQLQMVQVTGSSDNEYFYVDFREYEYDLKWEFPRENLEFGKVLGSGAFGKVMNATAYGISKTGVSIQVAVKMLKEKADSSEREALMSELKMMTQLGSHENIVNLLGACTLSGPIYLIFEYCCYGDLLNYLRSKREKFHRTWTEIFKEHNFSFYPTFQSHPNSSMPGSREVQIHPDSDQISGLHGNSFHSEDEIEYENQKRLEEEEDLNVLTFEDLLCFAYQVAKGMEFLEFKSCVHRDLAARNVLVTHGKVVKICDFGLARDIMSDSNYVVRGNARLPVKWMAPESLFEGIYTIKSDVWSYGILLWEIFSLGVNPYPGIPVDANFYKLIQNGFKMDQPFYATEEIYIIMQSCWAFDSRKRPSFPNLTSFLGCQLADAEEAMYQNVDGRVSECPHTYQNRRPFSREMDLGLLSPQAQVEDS
Sequence of Vascular endothelial growth factor receptor 2 (Homo sapiens) (P35968 whole entry): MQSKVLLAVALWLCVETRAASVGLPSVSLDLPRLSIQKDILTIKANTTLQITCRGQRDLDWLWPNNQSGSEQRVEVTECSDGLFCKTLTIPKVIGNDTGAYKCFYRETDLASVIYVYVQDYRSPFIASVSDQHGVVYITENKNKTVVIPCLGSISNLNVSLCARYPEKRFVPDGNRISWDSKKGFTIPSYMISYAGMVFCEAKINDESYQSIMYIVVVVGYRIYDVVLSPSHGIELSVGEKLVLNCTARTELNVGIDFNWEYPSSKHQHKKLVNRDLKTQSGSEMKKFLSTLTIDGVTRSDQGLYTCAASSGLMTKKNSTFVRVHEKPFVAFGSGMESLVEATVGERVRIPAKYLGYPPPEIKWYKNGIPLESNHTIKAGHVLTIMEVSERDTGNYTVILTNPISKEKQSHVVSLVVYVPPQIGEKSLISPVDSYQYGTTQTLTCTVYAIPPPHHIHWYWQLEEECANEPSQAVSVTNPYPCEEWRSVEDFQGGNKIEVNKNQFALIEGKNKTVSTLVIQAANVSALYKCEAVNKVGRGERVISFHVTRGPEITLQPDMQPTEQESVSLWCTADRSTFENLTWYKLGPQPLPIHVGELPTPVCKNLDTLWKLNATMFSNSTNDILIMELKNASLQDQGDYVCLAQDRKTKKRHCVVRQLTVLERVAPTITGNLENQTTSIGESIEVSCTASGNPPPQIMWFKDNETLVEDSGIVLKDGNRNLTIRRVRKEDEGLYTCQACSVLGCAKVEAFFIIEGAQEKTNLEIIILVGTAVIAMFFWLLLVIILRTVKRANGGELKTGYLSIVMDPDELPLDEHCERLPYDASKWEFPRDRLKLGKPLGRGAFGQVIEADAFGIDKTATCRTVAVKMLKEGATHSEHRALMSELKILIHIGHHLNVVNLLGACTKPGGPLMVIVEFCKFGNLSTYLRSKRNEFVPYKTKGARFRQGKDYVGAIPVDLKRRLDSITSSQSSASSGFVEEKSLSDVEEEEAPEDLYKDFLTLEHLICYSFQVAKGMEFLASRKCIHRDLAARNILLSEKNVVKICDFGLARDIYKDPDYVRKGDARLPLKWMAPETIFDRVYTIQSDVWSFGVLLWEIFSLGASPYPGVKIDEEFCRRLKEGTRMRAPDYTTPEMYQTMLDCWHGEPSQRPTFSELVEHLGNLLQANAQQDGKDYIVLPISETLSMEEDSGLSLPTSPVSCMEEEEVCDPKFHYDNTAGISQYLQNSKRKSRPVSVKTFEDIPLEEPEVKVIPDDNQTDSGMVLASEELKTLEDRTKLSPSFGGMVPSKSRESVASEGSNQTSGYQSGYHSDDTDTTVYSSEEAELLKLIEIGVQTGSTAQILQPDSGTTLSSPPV
Sequence of Vascular endothelial growth factor receptor 3 (Homo sapiens) (P35916 whole entry): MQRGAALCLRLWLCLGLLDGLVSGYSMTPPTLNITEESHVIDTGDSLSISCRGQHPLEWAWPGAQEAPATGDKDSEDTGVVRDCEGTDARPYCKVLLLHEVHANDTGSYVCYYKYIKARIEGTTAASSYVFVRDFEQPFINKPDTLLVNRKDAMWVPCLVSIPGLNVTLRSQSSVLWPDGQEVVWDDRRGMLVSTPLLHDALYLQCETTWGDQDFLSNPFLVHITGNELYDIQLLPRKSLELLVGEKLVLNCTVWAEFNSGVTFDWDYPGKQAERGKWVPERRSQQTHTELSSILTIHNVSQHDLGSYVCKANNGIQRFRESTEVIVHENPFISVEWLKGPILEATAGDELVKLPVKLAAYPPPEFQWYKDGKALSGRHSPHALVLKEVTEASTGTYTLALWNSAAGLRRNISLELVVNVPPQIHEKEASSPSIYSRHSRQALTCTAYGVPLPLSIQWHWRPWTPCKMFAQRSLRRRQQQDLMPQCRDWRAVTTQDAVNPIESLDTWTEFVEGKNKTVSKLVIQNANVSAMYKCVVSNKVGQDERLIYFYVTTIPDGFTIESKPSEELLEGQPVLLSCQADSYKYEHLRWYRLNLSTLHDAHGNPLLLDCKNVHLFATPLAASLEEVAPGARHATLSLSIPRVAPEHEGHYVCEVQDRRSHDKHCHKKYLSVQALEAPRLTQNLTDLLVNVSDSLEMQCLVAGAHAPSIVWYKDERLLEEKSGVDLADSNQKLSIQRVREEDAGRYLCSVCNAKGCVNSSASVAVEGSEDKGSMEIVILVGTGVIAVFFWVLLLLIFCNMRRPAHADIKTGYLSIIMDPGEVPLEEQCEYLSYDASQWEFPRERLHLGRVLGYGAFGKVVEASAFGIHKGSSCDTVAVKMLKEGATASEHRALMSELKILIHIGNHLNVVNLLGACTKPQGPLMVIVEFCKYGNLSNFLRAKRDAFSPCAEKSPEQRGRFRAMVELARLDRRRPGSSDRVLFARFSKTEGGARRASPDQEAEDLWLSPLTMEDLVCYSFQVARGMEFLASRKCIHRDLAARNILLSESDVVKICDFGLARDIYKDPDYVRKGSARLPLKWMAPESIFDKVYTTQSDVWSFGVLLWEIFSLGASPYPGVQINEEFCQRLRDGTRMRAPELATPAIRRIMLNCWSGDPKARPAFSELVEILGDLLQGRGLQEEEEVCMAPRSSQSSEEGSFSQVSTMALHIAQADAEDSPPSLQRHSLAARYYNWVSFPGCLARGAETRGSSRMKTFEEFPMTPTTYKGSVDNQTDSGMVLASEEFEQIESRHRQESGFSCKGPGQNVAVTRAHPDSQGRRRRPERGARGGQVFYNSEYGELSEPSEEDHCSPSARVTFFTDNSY
Sequence of Casein kinase I isoform epsilon (Homo sapiens) (P49674 whole entry, looked up, canonical isoform): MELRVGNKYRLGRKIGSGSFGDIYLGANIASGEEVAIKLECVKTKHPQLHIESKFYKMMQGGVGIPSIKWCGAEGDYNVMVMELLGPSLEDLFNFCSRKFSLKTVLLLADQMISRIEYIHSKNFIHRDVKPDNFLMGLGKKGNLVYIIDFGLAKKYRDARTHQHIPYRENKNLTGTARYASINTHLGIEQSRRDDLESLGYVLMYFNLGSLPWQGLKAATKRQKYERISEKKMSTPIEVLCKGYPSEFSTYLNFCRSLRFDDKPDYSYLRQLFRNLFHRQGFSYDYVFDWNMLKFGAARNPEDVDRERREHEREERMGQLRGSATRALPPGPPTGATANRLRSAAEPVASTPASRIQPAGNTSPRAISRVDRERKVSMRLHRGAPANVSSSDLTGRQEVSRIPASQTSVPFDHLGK

CCS(=O)(=O)c1cc2cc(C[C@@](O)(CC(C)(C)c3ccc(F)cc3C(N)=O)C(F)(F)F)[nH]c2cn1
residual activity [1]: 96% | residual activity [2]: 88% | residual activity [3]: 100% | residual activity [4]: 97% | residual activity [5]: 51% | residual activity [6]: 97% | residual activity [7]: 100% | residual activity [8]: 65% | residual activity [9]: 97% | residual activity [10]: 81% | residual activity [11]: 100% | residual activity [12]: 77% | inhibition [13]: 7.33% | residual activity [14]: 97% | residual activity [15]: 99% | residual activity [16]: 95% | residual activity [17]: 100% | residual activity [18]: 90% | residual activity [19]: 92% | residual activity [20]: 90% | residual activity [21]: 100% | residual activity [22]: 90% | residual activity [23]: 100% | residual activity [24]: 74% | residual activity [25]: 100% | residual activity [26]: 94% | residual activity [27]: 100% | residual activity [28]: 90% | residual activity [29]: 100% | residual activity [30]: 93% | residual activity [31]: 100% | residual activity [32]: 79% | residual activity [33]: 100% | residual activity [34]: 100% | residual activity [35]: 88% | residual activity [36]: 75% | inhibition [37]: -3.13% | inhibition [38]: 5.83% | residual activity [39]: 97% | residual activity [40]: 100% | residual activity [41]: 87% | residual activity [42]: 87% | residual activity [43]: 0% | residual activity [44]: 94% | residual activity [45]: 99% | residual activity [46]: 95%

CCS(=O)(=O)c1cc2cc(C[C@](O)(CC(C)(C)c3ccc(F)cc3C(N)=O)C(F)(F)F)[nH]c2cn1
residual activity [1]: 100% | residual activity [2]: 100% | residual activity [3]: 100% | residual activity [4]: 100% | residual activity [5]: 87% | residual activity [6]: 95% | residual activity [7]: 100% | residual activity [8]: 100% | residual activity [9]: 87% | residual activity [10]: 97% | residual activity [11]: 100% | residual activity [12]: 98% | inhibition [13]: 0.64% | residual activity [14]: 90% | residual activity [15]: 100% | residual activity [16]: 100% | residual activity [17]: 100% | residual activity [18]: 93% | residual activity [19]: 83% | residual activity [20]: 100% | residual activity [21]: 94% | residual activity [22]: 95% | residual activity [23]: 100% | residual activity [24]: 96% | residual activity [25]: 100% | residual activity [26]: 100% | residual activity [27]: 100% | residual activity [28]: 100% | residual activity [29]: 100% | residual activity [30]: 94% | residual activity [31]: 100% | residual activity [32]: 100% | residual activity [33]: 100% | residual activity [34]: 97% | residual activity [35]: 78% | residual activity [36]: 91% | inhibition [37]: -3.78% | inhibition [38]: -1.88% | residual activity [39]: 87% | residual activity [40]: 100% | residual activity [41]: 80% | residual activity [42]: 93% | residual activity [43]: 92% | residual activity [44]: 87% | residual activity [45]: 89% | residual activity [46]: 100%

— ChEMBL document CHEMBL4507277
